# Experiments:
# [1] = test system: mouse adult neural stem cells; experiment: Intracellular ATP assay, adult mouse NSC, non-adherent culture; assay type: cell-based
# Protocol: The anterior lateral wall of the lateral ventricle of 5-6 week old mice was enzymatically dissociated in 0.8 mg/ml hyaluronidase and 0.5 mg/ml trypsin in DMEM containing 4.5 mg/ml glucose and 80 units/ml DNase at 37° C. for 20 min. The cells were gently triturated and mixed with three volumes of Neurosphere medium (DMEM/F12, B27 supplement, 12.5 mM HEPES pH7.4) containing 20 ng/ml EGF (unless otherwise stated), 100 units/ml penicillin and 100μg/ml streptomycin. After passing through a 70 μm strainer, the cells were pelleted at 160×g for 5 min. The supernatant was subsequently removed and the cells resuspended in Neurosphere medium supplemented as above, plated out in culture dishes and incubated at 37° C. Neurospheres were ready to be split approximately 7 days after plating.
# To split neurosphere cultures, neurospheres were collected by centrifugation at 160×g for 5 min. The neurospheres were resuspended in 0.5 ml Trypsin/EDTA in HBSS (1×), incubated at 37° C. for 2 min and triturated gently to aid dissociation. Following a further 3 min incubation at 37° C. and trituration, 3 volumes of ice cold NSPH-media-EGF were added to stop further trypsin activity. The cells were pelleted at 220×g for 4 min, resuspended in fresh Neurosphere medium supplemented with 20 ng/ml EGF and 1 nM bFGF plated out and incubated at 37° C.
# Mouse neurospheres, cultured as described above, from passage 2, were seeded in DMEM/F12 supplemented with B27 into a 96-well plate as single cells (10000 cells/well) to the substances to be measured were added at the concentrations indicated. After 3 days incubation, intracellular ATP was measured using the ATP-SL kit from BioThema, Sweden, according to the manufacturer's instructions. PACAP and VIP were purchased from Bachem. Maxadilan was a kind gift from Richard G Titus, Dept Microbiology, Immunology and Pathology, College of Veterinary Medicine and Biological Sciences, Colorado State University.
# In experiments where signalling pathways were examined, cells were seeded as single cells as mentioned above. PACAP, 100 nM, was co incubated with 10 uM PKA inhibitor H89 (Alexis-Biochemicals) or 1 uM PLC inhibitor U73122 (Alexis-Biochemicals) or 1 uM of the PKC inhibitor Gö6976 (Sigma-Aldrich). Cells were incubated for 4 days before measurements of ATP.
# In the experiment analysing the combinatory effect of PACAP and EGF, PACAP at 100 nM was co-incubated with 3 nM EGF for 3 days.
# [2] = test system: CREB phosphorylation; experiment: Western blot of phosphorylated CREB, adult mouse NSC, non-adherent; assay type: cell-based; details: 10 nM PACAP
# Protocol: (§1) Adult mouse NSC and aHNSC were prepared and cultured as stated in Example 2 (Method A) and Example 1 (Method A). Cultures were exposed to either 10 nM PACAP or EGF (1 nM) and FGF (1 nM) for the times indicated. After treatment, the cells were lysed in lysis buffer, as shown in Patrone et al. (Patrone, Andersson et al. 1999). DNA content was detemined by the use of a Pico Green-kit for ds DNA quantitation of cell extracts. Total protein measurements were performed with Nano Orange-kit. Equal amounts of protein were run on a gradient gel 4-12% Bis-Tris gel (NuPage/Mops buffer) and transferred to a nitrocellulose membrane. Western blot was performed and phosphorylated CREB was labelled using a rabbit anti phospho-CREB (1:1000, Upstate biotechnology), a secondary anti rabbit HRP antibodies (1:10.000). Phosphorylated CREB protein bands (43 kD) were detected using the ECL-kit (Amersham).
# [3] = test system: AP-1; experiment: AP-1 transcription factor reporter assay; assay type: cell-based, mouse; details: PACAP 100 nM, 20 hours after induction, compared to non-induced cells
# Protocol: Vectors: Vector DNA containing reporter elements for AP-1 and empty cloning vector (pTAL), with a luciferace reporter were purchased from Promega. The vectors were propagated in E. coli strain JM-109 (Promega) and purified with Qiagens maxi-prep Kit (Qiagen). The concentration was diluted to approximately 1 mg/ml per vector.
# Transfection: Transient transfection was performed by seeding cells as above in suspension neurosphere cell culture and adherent neurosphere cell culture (1 to 3 day incubation) using 30,000 single cells/well. Each well was transiently transfected with […] plasmid, 0.6 μg Nupherin-neuron (Biomol) and 0,6 μl of Fugene-6 (Roche). Plasmid and Nupherin was mixed and diluted in DMEM/F12 to a total volume of 50 μl/well, and were incubated for 15 minutes prior to mixing with Fugene-6 that were diluted in DMEM/F12 to a total volume of 50 μl/well. The mix of plasmid and Nupherin and Fugene-6 were incubated for 20 min. The volume was adjusted to 100 μl prior to addition of 100 μl/well of transfection reagent.
# Assay: The following day the transiently transfected cells were applied with PACAP (Bachem) to final concentration of 100 nM/well, in the presence or absence of MEK inhibitor, […] (Sigma-Aldrich). Luciferace activity was analysed with steady glow (Promega) according to the instructions of the manufacturer. Cells were analysed 20 hours after induction with PACAP.
# [4] = test system: differentiating neural stem cells; experiment: Intracellular ATP assay, differentiating adult mouse NSC, adherent culture; assay type: cell-based; details: varying concentrations, adherent conditions, 3 days, relative to control, dose-dependent
# Protocol: Adult mouse NSC were cultivated from the anterior lateral wall of the lateral ventricle of 5-6 week old mice as described in Example 2 (Method A).
# Mouse neurospheres, cultured as described above, from passage 2, were seeded in DMEM/F12 supplemented with B27 and 1% Fetal Calf Serum into a 96-well plate coated with poly-D-lysine as single cells (30000 cells/well) and cultured over-night. The following day the medium was replaced with Neurosphere medium and PACAP added to the concentrations indicated. After 3 days incubation, intracellular ATP was measured using the ATP-SL kit from BioThema, Sweden, according to the manufacturer's instructions.
# [5] = test system: CREB phosphorylation; experiment: Western blot of phosphorylated CREB, differentiating adult mouse NSC, adherent; assay type: cell-based; details: 10 nM PACAP
# Protocol: as §1, with “Example 5 (Method A & B) and Example” for “Example”, “A), respectively.” for “A) and Example 1 (Method A).”, “to” for “to either”, “PACAP” for “PACAP or EGF (1 nM) and FGF (1 nM)”
substance,measurement,setting,value
pituitary adenylate cyclase-activating polypeptide [PACAP],intracellular ATP levels,"[1]; PACAP 100 nM, 4 days, relative to control",significantly increases intracellular ATP levels
same,"intracellular ATP levels, and hence NSC number","[1]; PACAP 100 nM, EGF 3 nM, alone or combined, 3 days",increased intracellular ATP levels
same,"intracellular ATP levels, and hence cell number","[1]; varying concentrations, non-adherent conditions, 3 days, relative to control, dose-dependent",statistically significant increase in intracellular ATP levels
same,CREB phosphorylation,[2]; 15 min exposure,upregulated
same,CREB phosphorylation,[2]; 240 min,return to basal levels
same,AP-1 expression (luciferace activity),[3],significantly induced
same,"intracellular ATP levels, and hence cell number",[4],statistically significant increase in intracellular ATP levels
same,CREB phosphorylation,[5]; 15 min exposure,upregulated
same,CREB phosphorylation,[5]; 240 min,slightly above basal levels

# From patent US20040038888A1 (priority 2002, published 2004)
